# Patent US12391686B2, “Compounds and uses thereof” (Foghorn Therapeutics Inc., priority 2019, dated 2025)
# Biological target: T1, Nanoluciferase-BRD9 fusion protein (3×FLAG-NLuc-BRD9) in SYO-1 cells (Homo sapiens, UniProt Q9H8M2)
# T1 construct: expressed in transfected cells; host or cells: SYO-1
# T1 sequence (Q9H8M2 1-597): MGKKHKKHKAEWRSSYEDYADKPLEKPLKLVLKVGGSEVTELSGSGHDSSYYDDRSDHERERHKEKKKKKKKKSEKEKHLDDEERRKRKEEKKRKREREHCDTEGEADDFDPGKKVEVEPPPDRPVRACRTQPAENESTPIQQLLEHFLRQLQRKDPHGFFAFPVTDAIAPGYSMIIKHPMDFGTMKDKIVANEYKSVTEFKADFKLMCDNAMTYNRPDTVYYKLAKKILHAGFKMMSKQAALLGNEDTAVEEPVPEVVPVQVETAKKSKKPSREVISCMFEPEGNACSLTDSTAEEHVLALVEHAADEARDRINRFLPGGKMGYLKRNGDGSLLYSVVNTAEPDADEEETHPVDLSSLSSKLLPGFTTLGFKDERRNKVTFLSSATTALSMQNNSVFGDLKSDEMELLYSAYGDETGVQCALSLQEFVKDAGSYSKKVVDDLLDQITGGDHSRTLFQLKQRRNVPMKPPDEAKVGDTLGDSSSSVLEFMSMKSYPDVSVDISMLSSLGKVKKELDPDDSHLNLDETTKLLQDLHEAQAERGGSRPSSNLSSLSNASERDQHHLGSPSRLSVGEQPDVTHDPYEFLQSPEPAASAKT
# Experiment: SYO1 BRD9 NanoLuc Degradation Assay
# Type: cell-based
# Details: Table 6C; SYO-1 cells expressing 3×FLAG-NLuc-BRD9, 6 hours incubation, 1 μM top dose; read-out: SYO1 BRD9-NanoLuc degradation IC50
# Summary of the method: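 Stable 3×FLAG-NLuc-BRD9 SYO-1 line, 8000 cells/well, dosed day 1 with 10-point 3-fold dilutions (1 μM final top, duplicates) for 6 h. NanoLuc bioluminescence read with Nano-Glo; % inhibition relative to DMSO (high) and 1 μM reference BRD9 degrader (low) controls.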
row,DC50,SMILES
1,< 10 nM,COCC1CN(CCC2CCN(c3ccc4c(c3)C(=O)N(C3CCC(=O)NC3=O)C4=O)CC2)CCN1Cc1c(OC)cc(-c2cn(C)c(=O)c3cnc(N4CCC4)cc23)cc1OC (stereo not shown) [Compound D215]
2,< 10 nM,COc1cc(-c2cn(C)c(=O)c3cnc(C4(C)CC4)cc23)cc(OC)c1CN1CCC(CCN2CCN(c3ccc4c(c3)C(=O)N(C3CCC(=O)NC3=O)C4=O)CC2)CC1 (stereo not shown) [Compound D216]
3,< 10 nM,COc1cc2c(-c3cc(OC)c(CN4CCN(c5ccc6c(c5)C(=O)N(C5CCC(=O)NC5=O)C6)CC4)c(OC)c3)cn(C)c(=O)c2cn1 (stereo not shown) [Compound D217]
4,< 10 nM,COc1cc(-c2cn(C)c(=O)c3cnc(N4CCC4)cc23)cc(OC)c1CN1CCC(CN2CCC3(CC2)CN(c2ccc4c(c2)CN(C2CCC(=O)NC2=O)C4=O)C3)CC1 (stereo not shown) [Compound D218]
5,< 10 nM,COc1cc(-c2cn(C)c(=O)c3cnc(C4CC4)cc23)cc(OC)c1CN1CCC2(CC1)CN(c1ccc3c(c1)C(=O)N(C1CCC(=O)NC1=O)C3=O)C2 (stereo not shown) [Compound D219]
6,< 10 nM,COc1cc(-c2cn(C)c(=O)c3cnc(C4CC4)cc23)cc(OC)c1CN1CCC2(CC1)CN(c1ccc3c(c1)CN(C1CCC(=O)NC1=O)C3=O)C2 (stereo not shown) [Compound D220]
7,< 10 nM,COc1cc(-c2cn(C)c(=O)c3cnc(N4CCC4)c(F)c23)cc(OC)c1CN1CC(CN2CCC3(CC2)CN(c2ccc4c(c2)C(=O)N(C2CCC(=O)NC2=O)C4)C3)C1 (stereo not shown) [Compound D221]
8,< 10 nM,COc1cc(-c2cn(C)c(=O)c3cnc(N4CCC4)cc23)cc(OC)c1CN1[C@H](C)CN(CCC2CCN(c3ccc4c(c3)C(=O)N(C3CCC(=O)NC3=O)C4=O)CC2)C[C@H]1C (stereo partly shown) [Compound D222]
9,< 10 nM,[2H]C([2H])([2H])n1cc(-c2cc(OC)c(CN3CCN(CCC4CCN(c5ccc6c(c5)CN(C5CCC(=O)NC5=O)C6=O)CC4)CC3)c(OC)c2)c2cc(N(C)C)ncc2c1=O (stereo not shown) [Compound D223]
10,< 10 nM,COc1cc2c(-c3cc(OC)c(CN4CCN(CCC5CCN(c6ccc7c(c6)CN(C6CCC(=O)NC6=O)C7=O)CC5)CC4)c(OC)c3)cn(C)c(=O)c2cn1 (stereo not shown) [Compound D224]
11,< 10 nM,COc1cc2c(-c3cc(OC)c(CN4CCN(CCC5CCN(c6ccc7c(c6)C(=O)N(C6CCC(=O)NC6=O)C7)CC5)CC4)c(OC)c3)cn(C)c(=O)c2cn1 (stereo not shown) [Compound D225]
12,< 10 nM,COc1cc(-c2cn(C)c(=O)c3cnc(C4CC4)cc23)cc(OC)c1CN1CCC2(CC1)CN(c1ccc3c(c1)C(=O)N(C1CCC(=O)NC1=O)C3)C2 (stereo not shown) [Compound D226]
13,< 10 nM,COc1cc(-c2cn(C)c(=O)c3cnc(N4CCC4)cc23)cc(OC)c1CN1CCC(CN2CCC3(CN(c4ccc5c(c4)C(=O)N(C4CCC(=O)NC4=O)C5)C3)C(F)(F)C2)CC1 (stereo not shown) [Compound D227]
14,< 10 nM,COc1cc(-c2cn(C)c(=O)c3cnc(C(C)(C)O)cc23)cc(OC)c1CN1CCC(CN2CCC3(CC2)CC(Oc2ccc4c(c2)C(=O)N(C2CCC(=O)NC2=O)C4)C3)CC1 (stereo not shown) [Compound D228]
15,< 10 nM,COc1cc(-c2cn(C)c(=O)c3cnc(C4(C)CC4)cc23)cc(OC)c1CN1CC(Oc2ccc3c(c2)C(=O)N(C2CCC(=O)NC2=O)C3=O)C1 (stereo not shown) [Compound D229]
16,< 10 nM,[2H]C([2H])([2H])n1cc(-c2cc(OC)c(CN3CCN(CCC4CCN(c5ccc6c(c5)CN(C5CCC(=O)NC5=O)C6=O)CC4)CC3)c(OC)c2)c2cc(OC)ncc2c1=O (stereo not shown) [Compound D230]
17,< 10 nM,[2H]C([2H])([2H])n1cc(-c2cc(OC)c(CN3CCN(CCC4CCN(c5ccc6c(c5)C(=O)N(C5CCC(=O)NC5=O)C6)CC4)CC3)c(OC)c2)c2cc(OC)ncc2c1=O (stereo not shown) [Compound D231]
18,< 10 nM,COc1cc(-c2cn(C)c(=O)c3cnc(N4CCC4)cc23)cc(OC)c1CN1CCC(CN2CCC3(CN(c4ccc5c(c4)CN(C4CCC(=O)NC4=O)C5=O)C3)C(F)(F)C2)CC1 (stereo not shown) [Compound D232]
19,< 10 nM,[2H]C([2H])([2H])n1cc(-c2cc(OC)c(CN3CCC4(CC3)CN(c3ccc5c(c3)C(=O)N(C3CCC(=O)NC3=O)C5)C4)c(OC)c2)c2cc(C3CC3)ncc2c1=O (stereo not shown) [Compound D233]
20,< 10 nM,[2H]C([2H])([2H])n1cc(-c2cc(OC)c(CN3CCC4(CC3)CN(c3ccc5c(c3)C(=O)N(C3CCC(=O)NC3=O)C5)C4)c(OC)c2)c2cc(OC)ncc2c1=O (stereo not shown) [Compound D234]
21,< 10 nM,COc1cc2c(-c3cc(OC)c(CN4CCC(c5ccc6c(c5)CN(C5CCC(=O)NC5=O)C6=O)CC4)c(OC)c3)cn(C)c(=O)c2cn1 (stereo not shown) [Compound D235]
22,< 10 nM,COc1cc(-c2cn(C)c(=O)c3cnc(N(C)C)cc23)cc(OC)c1CN1CCC(CN2CCC3(CC2)CN(c2ccc4c(c2)C(=O)N(C2CCC(=O)NC2=O)C4)C3)C(F)(F)C1 (stereo not shown) [Compound D236]

row,DC50,SMILES
1,< 10 nM,COc1cc(-c2cn(C)c(=O)c3cnc(C4(C)CC4)cc23)cc(OC)c1CN1CCC(CCN2CCN(c3ccc4c(c3)C(=O)N(C3CCC(=O)NC3=O)C4)CC2)CC1 (stereo not shown) [Compound D237]
2,< 10 nM,COc1cc(-c2cn(C)c(=O)c3cnc(C4(C)CC4)cc23)cc(OC)c1CN1CCC(CCN2CCN(c3ccc4c(c3)CN(C3CCC(=O)NC3=O)C4=O)CC2)CC1 (stereo not shown) [Compound D238]
3,< 10 nM,[2H]C([2H])([2H])n1cc(-c2cc(OC)c(CN3CC(Oc4ccc5c(c4)C(=O)N(C4CCC(=O)NC4=O)C5)C3)c(OC)c2)c2cc(OC)ncc2c1=O (stereo not shown) [Compound D239]
4,< 10 nM,[2H]C([2H])([2H])n1cc(-c2cc(OC)c(CN3CCN(CCC4CCN(c5ccc6c(c5)C(=O)N(C5CCC(=O)NC5=O)C6)CC4)CC3)c(OC)c2)c2cc(N(C)C)ncc2c1=O (stereo not shown) [Compound D240]
5,< 10 nM,COc1cc(-c2cn(C)c(=O)c3cnc(N4CC(F)(F)C4)cc23)cc(OC)c1CN1CCC(CCN2CCC3(CC2)CN(c2ccc4c(c2)C(=O)N(C2CCC(=O)NC2=O)C4)C3)CC1 (stereo not shown) [Compound D241]
6,< 10 nM,[2H]C([2H])([2H])n1cc(-c2cc(OC)c(CN3CC(Oc4ccc5c(c4)CN(C4CCC(=O)NC4=O)C5=O)C3)c(OC)c2)c2cc(OC)ncc2c1=O (stereo not shown) [Compound D242]
7,< 10 nM,COc1cc(-c2cn(C)c(=O)c3cnc(C4CC4)cc23)cc(OC)c1CN1CCC(C(N2CCC3(CC2)CC(Oc2ccc4c(c2)C(=O)N(C2CCC(=O)NC2=O)C4)C3)C(F)(F)F)CC1 (stereo not shown) [Compound D243]
8,< 10 nM,[2H]C1CC(N2Cc3ccc(N4CCC(CCN5CCN(Cc6c(OC)cc(-c7cn(C)c(=O)c8cnc(N9CCC9)cc78)cc6OC)CC5)CC4)cc3C2=O)C(=O)NC1=O (stereo not shown) [Compound D244]
9,< 10 nM,[2H]C1CC(N2Cc3cc(N4CCC(CCN5CCN(Cc6c(OC)cc(-c7cn(C)c(=O)c8cnc(N9CCC9)cc78)cc6OC)CC5)CC4)ccc3C2=O)C(=O)NC1=O (stereo not shown) [Compound D245]
10,< 10 nM,[2H]C([2H])([2H])n1cc(-c2cc(OC)c(CN3CC(Oc4ccc5c(c4)C(=O)N(C4CCC(=O)NC4=O)C5)C3)c(OC)c2)c2cc(C3CC3)ncc2c1=O (stereo not shown) [Compound D247]
11,< 10 nM,COc1cc(-c2cn(C)c(=O)c3cnc(N4CC(F)(F)C4)cc23)cc(OC)c1CN1CCN(CCC2CCN(c3ccc4c(c3)CN(C3CCC(=O)NC3=O)C4=O)CC2)CC1 (stereo not shown) [Compound D248]
12,100 to 1000 nM,COc1cc(-c2cn(C)c(=O)c3cnc(N(C)C)cc23)cc(OC)c1CN1CC2(CC(N3CCN(C4CCC(=O)NC4=O)C(=O)C3)C2)C1 (stereo not shown) [Compound D249]
13,100 to 1000 nM,COc1cc(-c2cn(C)c(=O)c3cnc(N(C)C)cc23)cc(OC)c1CN1CCC(N2CCN(C3CCC(=O)NC3=O)C(=O)C2)C1 (stereo not shown) [Compound D250]
14,≥ 1000 nM,COc1cc(-c2cn(C)c(=O)c3cnc(N(C)C)cc23)cc(OC)c1CN1CCC2(CC1)CC(N1CCN(C3CCC(=O)NC3=O)C(=O)C1)C2 (stereo not shown) [Compound D251]
15,10 to 100 nM,COc1cc(-c2cn(C)c(=O)c3cnc(N(C)C)cc23)cc(OC)c1CN1CC2(CCC(N3CCN(C4CCC(=O)NC4=O)C(=O)C3)CC2)C1 (stereo not shown) [Compound D252]
16,≥ 1000 nM,COc1cc(-c2cn(C)c(=O)c3cnc(N(C)C)cc23)cc(OC)c1CN1CCC(N2CCN(C3CCC(=O)NC3=O)C(=O)C2)CC1 (stereo not shown) [Compound D253]
17,< 10 nM,[2H]C([2H])([2H])n1cc(-c2cc(OC)c(CN3[C@H](C)CN(c4ccc5c(c4)C(=O)N(C4CCC(=O)NC4=O)C5)C[C@H]3C)c(OC)c2)c2cc(OC)ncc2c1=O (stereo partly shown) [Compound D254]
18,< 10 nM,COc1cc(-c2cn(C)c(=O)c3cnc(N(C)C)cc23)cc(OC)c1CN1CCN(c2ccc3c(c2)C(=O)N(C2CCC(=O)NC2=O)C3)CC1(C)C (stereo not shown) [Compound D255]
19,< 10 nM,COc1cc(-c2cn(C)c(=O)c3cnc(N4CCC4)cc23)cc(OC)c1CN1CC(N(C)c2ccc3c(c2)C(=O)N(C2CCC(=O)NC2=O)C3)C1 (stereo not shown) [Compound D256]
20,< 10 nM,COc1cc(-c2cn(C)c(=O)c3cnc(N(C)C)cc23)cc(OC)c1C1CN(c2ccc3c(c2)C(=O)N(C2CCC(=O)NC2=O)C3)C1 (stereo not shown) [Compound D257]
21,< 10 nM,COc1cc2c(-c3cc(OC)c(CN4CCN(CCC5CCN(c6ccc7c(c6)C(=O)N(C6CCC(=O)NC6=O)C7)CC5)CC45CCC5)c(OC)c3)cn(C)c(=O)c2cn1 (stereo not shown) [Compound D258]
